According to BindingDB's records for doi:10.1021/jm7011563 (University of Siena, 2008):

Target: T1, Type-1 angiotensin II receptor A (Rattus norvegicus, UniProt P25095)
T1 sequence (P25095 whole entry): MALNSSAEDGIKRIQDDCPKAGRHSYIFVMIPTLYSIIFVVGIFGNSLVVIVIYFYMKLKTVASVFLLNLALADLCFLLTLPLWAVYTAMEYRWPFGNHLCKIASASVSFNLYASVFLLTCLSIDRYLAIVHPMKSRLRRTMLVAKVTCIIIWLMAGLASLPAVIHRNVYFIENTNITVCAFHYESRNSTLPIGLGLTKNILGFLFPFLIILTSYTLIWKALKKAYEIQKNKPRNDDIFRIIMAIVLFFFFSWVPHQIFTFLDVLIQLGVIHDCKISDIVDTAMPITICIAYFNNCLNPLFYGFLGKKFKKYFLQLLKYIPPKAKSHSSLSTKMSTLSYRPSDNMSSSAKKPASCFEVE
Assay: Displacement of [125I]Sar1,Ile8-Ang2 from AT1 receptor in Wistar rat hepatic membrane

Structure (SMILES) | IC50 [µM]
CCc1c2[nH]cccc-2c(=O)n1Cc1ccc(-c2ccccc2-c2nnn[nH]2)cc1 | > 10
O=c1c2ccc[nH]c-2cn1Cc1ccc(-c2ccccc2-c2nnn[nH]2)cc1 | > 10
